Source: publication PMC10508264, “Exploring the antioxidant, antimicrobial, cytotoxic and biothermodynamic properties of novel morpholine derivative bioactive Mn(II), Co(II) and Ni(II) complexes – combined experimental and theoretical measurements towards DNA/BSA/SARS-CoV-2 3CL^Pro” (RSC Medicinal Chemistry, 2023)
Like-named read-outs stand apart in the source and are kept apart here.

Tests used:
[1] = Shake flask n-octanol/deionized water partition (lipophilicity); format: physicochemical; settings: for pKa: Henderson–Hasselbalch; for Concentration, aqueous layer: deionised water phase; for Concentration, organic layer: n-octanol phase
Experimental: The lipophilicity of all complexes and free ligands was evaluated by the flask-shaking method through n-octanol/deionized water phase partition.[49–51] The partition coefficients (log Po/w) and distribution coefficients (log Do/w) of all substances were also acquired from molar absorption coefficients, conductivity, and pH measurements.[52–54]
Lipophilicity is an imperative factor in anticancer and antimicrobial properties, particularly the necessity for a relevant hydrophobicity to assist the crossing of the cell membrane. This is also supported for the characterization of a drug because it has a fundamental impact on the pharmacokinetic profile and is associated with its capacity to enter tumor cells through passive diffusion.[139] […] This is probably due to the fact that hydrophobic effects play a crucial role not only in the intramolecular interactions that take place between a medication and its target site, but also in the distribution of a drug within a biosystem, its interaction with rival binding sites, passage across and into membranes, and its interaction with metabolizing enzymes. However, the “accurate” model system for hydrophobic effects is octanol/water. Hydrophobicity (lipophilicity) is associated with the partition coefficient (log P), which is a measure of the ability of the solute to go into two immiscible phases (polar and non-polar environments). Also, it refers to the concentration of unionized species of compounds. Generally, the ability of a drug to penetrate with high permeability into lipid membranes depends on the solubility and partition coefficient of the drug. Furthermore, the partition coefficient is extensively employed in the discovery of new medications, chromatography, physical chemistry, environmental science and other fields. Since lipophilicity is one of the major parameters affecting important biological processes, it can influence drug intake via the absorption, distribution, metabolism, excretion, and toxicity (ADMET) characteristics of the substances.[140] Additionally, the ability of a molecule or drug to passively diffuse across cell membranes has been linked to its lipophilicity, which is a measure of the solubility of the substance in aqueous and lipid-like environments.[141] In general, chemotherapeutic medications often need to have certain solubility in the lipid phase in order to be absorbed by the biofilm. Meanwhile, the intracellular milieu is a water-soluble environment once the drug has entered the cell. The medicine must be water-soluble for it to have any anticancer effects. […] Conversely, the cytotoxic properties of a synthesized complex are not only associated with its DNA/protein binding affinity but may be also influenced by its lipophilicity. Additionally, molecules with higher lipophilicity have increased permeability into cell membranes, which determines a drug's cytotoxicity. […] However, more positive partition coefficient values (log P > 0) correspond to higher lipophilicity, and more negative values (log P < 0) correspond to higher hydrophilicity. Generally, log P is measured between −3 and +10; if […], the substance has an extremely hydrophilic character, and if log P > +10, the substance has an extremely hydrophobic character. In addition, the aromatic ligands get larger in size and become more hydrophobic. […] The present complexes (1–3) have higher values of log P and log D compared to the free ligand (Table 11). However, when log P > ±2, the drug will be harder to excrete from the body due to its high lipophilic character, which also creates toxicity due to accumulation. […] (Table 11). […] The observed results are also well correlated with cytotoxic properties. Moreover, in an equilibrium two-component system, the partition coefficient (log P) reflects the ratio of neutral solute concentrations in the organic and aqueous phases. As a result, log P expresses the inherent lipophilicity of a compound in the absence of dissociation or ionization. […]

Staphylococcus Aureus = experiment: Agar disc diffusion, strain F; format: cell-based; design: Inhibition%: concentration or dose not given beside the values; settings: for Diameter of clear zone inhibition: control 6 mm
NHDF = experiment: MTT cell viability assay, NHDF; format: cell-based, human; settings: NHDF normal cells, 72 h of exposure
Experimental: Cellular viability or metabolic properties can be measured using the MTT assay, which is a powerful and consistent method for cytotoxic properties. […] As per the colorimetric approach, the IC50 values of all compounds were evaluated via the percentage of cell viability or inhibition of growth.[128] […] However, complexes (2) and (3) were exposed to similar cytotoxic potential as the others,[129] which induces apoptosis due to their ability to produce ROS more efficiently than the free ligand. […] The cytotoxic effectiveness is dependent upon the DNA binding modalities, the structure–activity relationship, the drug concentrations, and the incubation period exposure.[130] […] Coordination between the ligands and metal ions results in charge equilibration, which diminishes the polarity of the metal ions and also causes the ability of the test complexes to pass via the cell membrane lipid layer in accordance with Tweedy's chelation theory. Thus, it inhibits the synthesis of cell-wall/protein/nucleic acid. Additionally, the results of DNA binding tests using these complexes, including gel electrophoresis, UV-vis spectral titration, hydrodynamics, emission, and CV findings, were in good agreement with the findings of cytotoxicity.[131] Expressions eqn (44) and (45) were applied to measure the percentage of growth inhibition and cell viability (Table 10). In this case, complexes (2) and (3) have been proven to have greater biological efficiency than the others. Cytotoxicity depends on not only the hydrophilicity or lipophilicity and permeability, which only assist the crossing of the cell membrane but are not responsible for cell death, but also on several other factors, including the Lewis acid character, overall stability, solubility, conductivity, compatibility, length of the metal–ligand bond, overall charge, electron density, reduction potential, dipole moment, intermolecular hydrogen bonds, proton transfer equilibrium, and coordination environment. These significant elements might also contribute to the increased biological activity. Moreover, cobalt is also generally not considered to be a very toxic element, and its coordination complexes have fascinating redox and magnetic characteristics that fit them for a remarkable range of biological and medical uses. […] Moreover, it is possible to intelligently adjust these factors to successfully target a desired pathway or biomolecule. Designing such well-controlled and selective cobalt-based therapeutics may benefit from a mechanistic understanding of the varied bioactivities of cobalt complexes. Thus, knowing the mechanism of action can direct the advancement of prospective cobalt treatments to clinical trial.[133]
2.5. Assessment of in-vitro antimicrobial properties
bacteria and 7 days for fungal strains.

[2] = n-octanol/deionised water, shake flask

Compound | Concentration, aqueous ions [1] [µM] | Net pH [1] | pKa [1] | Concentration, aqueous layer [1] [µM] | Concentration, organic layer [1] [M] | Log D ([1]; n-octanol/deionised water) | Log P [1, 2] | Inhibition% (Staphylococcus Aureus) [%] | Diameter of clear zone inhibition (Staphylococcus Aureus) [mm] | IC50 (NHDF) [µM] | logD at 24 h ([1]; n-octanol/deionised water, pH 7.11) | pKa ([1]; n-octanol/deionized water (shake flask), pH 3.35, read-out: pKa) | logP at 24 h ([1]; pH 7.11, n-octanol/deionised water, shake flask) | IC50 (NHDF; Homo sapiens) [µM]
[Mn+2].[O-]c1ccccc1N=Cc1ccc(N2CCOCC2)cc1.[O-]c1ccccc1N=Cc1ccc(N2CCOCC2)cc1.c1ccc(-c2ccccn2)nc1 [(1)] | 238 | 3.48 | 3.42 | 1600 | 0.0235 | 1.107 | 1.166 | 40 | 10 | 76.6 ± 3.8 |  |  |  | 
[Co+2].[O-]c1ccccc1N=Cc1ccc(N2CCOCC2)cc1.[O-]c1ccccc1N=Cc1ccc(N2CCOCC2)cc1.c1ccc(-c2ccccn2)nc1 [(2)] | 56.6 | 4.38 | 4.36 | 12000 | 0.0004 | −1.497 | −1.477 | 45 | 11 | 74 ± 3.7 |  |  |  | 
[Ni+2].[O-]c1ccccc1N=Cc1ccc(N2CCOCC2)cc1.[O-]c1ccccc1N=Cc1ccc(N2CCOCC2)cc1.c1ccc(-c2ccccn2)nc1 [(3)] | 35.7 | 4.76 | 4.75 | 1250 | 0.0185 | 1.158 | 1.170 | 40 | 10 | 73.8 ± 3.7 |  |  |  | 
Oc1ccccc1N=Cc1ccc(N2CCOCC2)cc1 [(HL), 2-(4-morpholinobenzylideneamino)phenol] | 789 | 3.35 |  | 900 | 0.011 |  |  | 33 | 09 |  | 0.814 | 3.08 | 1.09 | 209 ± 10.4
